This is an account of results in ChEMBL document CHEMBL1201862, “PubChem BioAssay data set” (2004).

The structures appear in SMILES notation. Calls of active or inactive are those of the source.

A short description of test [1]: intracellular Trypanosoma cruzi inhibitors in host cells – cell-based, plate reader, cherry-pick samples, set 3, dose response (AID 651818).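 Note: compounds incubated with infected cells for about four days.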 It counts as functional.
Test [2] can be described thus: Vero E6 cell cytotoxicity, dose response, cytotoxicity control for non-replicating M. tuberculosis project, secondary assay (AID 492998). It counts as functional, VeroE6. As to conditions: Vero C1008.
Another test has as its system Streptococcus. The test can be described thus: Group A Streptococcus viability loss, dose response, counter-screen for streptokinase expression inhibitor project, luminescence, BacTiterGlo (AID 1915).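 Note: potency for reduction of bacterial viability or growth.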 It counts as functional, organism-based.
Test [3] is described as follows: AlphaScreen signal interference compounds, dose response, artefact control for ARNT-TACC3 interaction inhibitor project, biochemical, luminescence, cherry-pick (AID 651705).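 Note: AlphaScreen bead proximity signal that flags compounds interfering with the detection technology; potency reflects signal decrease which marks the compound as an assay artifact.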 It counts as functional.
The next test in a line: cells. It counts as functional.
Test [4] in a line: A cytotoxicity screen of small molecule inhibitors of the PhoP region in Salmonella typhi identified in the primary screen. [Related pubchem assays: 1850, 1864, 1985 ]. The format is functional.
A short description of test [5]: THP-1 cell cytotoxicity, dose response, cytotoxicity control for non-replicating M. tuberculosis project (AID 489025). It counts as functional.
In a further test the target is T1, Streptokinase A (Streptococcus pyogenes serotype M1, UniProt P10520).
T1 sequence (P10520 whole entry): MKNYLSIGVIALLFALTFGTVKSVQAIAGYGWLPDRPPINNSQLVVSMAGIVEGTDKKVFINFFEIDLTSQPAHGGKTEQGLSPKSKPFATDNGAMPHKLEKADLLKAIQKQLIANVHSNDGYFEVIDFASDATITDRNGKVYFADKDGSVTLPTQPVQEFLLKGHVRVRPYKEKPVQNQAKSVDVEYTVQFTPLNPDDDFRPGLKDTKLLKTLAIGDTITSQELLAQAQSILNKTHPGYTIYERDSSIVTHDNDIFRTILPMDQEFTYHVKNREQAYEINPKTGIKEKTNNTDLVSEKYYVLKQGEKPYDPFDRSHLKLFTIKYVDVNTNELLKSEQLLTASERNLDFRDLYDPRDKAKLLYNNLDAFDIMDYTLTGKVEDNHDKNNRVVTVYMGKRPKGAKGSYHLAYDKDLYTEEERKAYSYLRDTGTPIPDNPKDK
The test can be described thus: S. pyogenes streptokinase expression inhibitors, potency, dose response, plasminogen activation absorbance, OD405 (AID 1914).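 Note: secreted streptokinase activity via plasminogen activation per viability signal from cell pellet.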 The format is functional, Streptococcus pyogenes M1 GAS.

The test system of test [6] is Streptococcus sp. 'group A'. The test can be described thus: growth inhibition of control SK(-) GAS strain, dose response, counter-screen for streptokinase expression inhibitor project, luminescence, kanamycin, BacTiterGlo, confirmation (AID 1900). The format is functional, organism-based.
The target in test [7] is T2, Corticotropin-releasing factor receptor 2/Corticotropin-releasing factor-binding protein (Homo sapiens, UniProt P24387+Q13324).
T2 sequence (Q13324 whole entry): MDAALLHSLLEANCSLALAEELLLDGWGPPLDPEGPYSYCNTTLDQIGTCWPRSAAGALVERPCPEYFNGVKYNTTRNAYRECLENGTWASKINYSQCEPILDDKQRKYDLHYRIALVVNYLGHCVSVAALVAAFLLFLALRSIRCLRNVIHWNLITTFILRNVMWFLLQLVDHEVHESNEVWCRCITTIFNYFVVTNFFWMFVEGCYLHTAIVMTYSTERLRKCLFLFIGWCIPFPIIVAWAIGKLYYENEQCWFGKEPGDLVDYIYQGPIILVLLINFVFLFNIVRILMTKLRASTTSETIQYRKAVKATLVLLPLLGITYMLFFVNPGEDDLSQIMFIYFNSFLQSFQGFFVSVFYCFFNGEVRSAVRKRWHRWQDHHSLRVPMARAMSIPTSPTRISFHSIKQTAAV
T2 sequence (P24387 whole entry): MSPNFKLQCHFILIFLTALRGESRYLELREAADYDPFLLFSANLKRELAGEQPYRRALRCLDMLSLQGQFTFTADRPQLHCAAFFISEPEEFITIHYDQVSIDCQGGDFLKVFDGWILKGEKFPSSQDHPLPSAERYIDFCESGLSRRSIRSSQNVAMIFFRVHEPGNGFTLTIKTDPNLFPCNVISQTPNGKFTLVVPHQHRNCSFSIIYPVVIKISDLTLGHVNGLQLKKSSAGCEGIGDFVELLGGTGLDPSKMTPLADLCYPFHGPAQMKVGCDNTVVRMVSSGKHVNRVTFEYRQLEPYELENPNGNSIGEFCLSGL
In words: Dose Response confirmation of uHTS hits for small molecule antagonists of the CRF-binding protein and CRF-R2 receptor complex. It counts as functional. Conditions: read-out: IC50_Mean.

The target in test [8] is T2, Corticotropin-releasing factor receptor 2/Corticotropin-releasing factor-binding protein. The test can be described thus: activators of CRF receptor 2 with binding protein – uHTS hits, confirmation (AID 602473). The format is functional. Conditions: read-out: EC50_Mean.
Test [9] is described as follows: CRF-BP/CRF-R2 complex antagonists, dose response, cell-based, uHTS hits, 384-well (AID 651639). Conditions: read-out: IC50_Mean. It counts as functional, Homo sapiens.
Test [10] is described as follows: ARNT/TACC3 interaction disruptors, potency, confirmation, biochemical, AlphaScreen, cherry-picked samples (AID 651703).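 Note: His-tagged ARNT PAS-B domain paired with GST-TACC3 E629A dimer coactivator fragment; potency of inhibitors that break up the complex and lower AlphaScreen signal.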 It counts as functional, Homo sapiens.
Test [11] has as its target T3, Replicative DNA helicase DnaB (Mycobacterium tuberculosis, UniProt P9WMR3).
T3 sequence (P9WMR3 whole entry): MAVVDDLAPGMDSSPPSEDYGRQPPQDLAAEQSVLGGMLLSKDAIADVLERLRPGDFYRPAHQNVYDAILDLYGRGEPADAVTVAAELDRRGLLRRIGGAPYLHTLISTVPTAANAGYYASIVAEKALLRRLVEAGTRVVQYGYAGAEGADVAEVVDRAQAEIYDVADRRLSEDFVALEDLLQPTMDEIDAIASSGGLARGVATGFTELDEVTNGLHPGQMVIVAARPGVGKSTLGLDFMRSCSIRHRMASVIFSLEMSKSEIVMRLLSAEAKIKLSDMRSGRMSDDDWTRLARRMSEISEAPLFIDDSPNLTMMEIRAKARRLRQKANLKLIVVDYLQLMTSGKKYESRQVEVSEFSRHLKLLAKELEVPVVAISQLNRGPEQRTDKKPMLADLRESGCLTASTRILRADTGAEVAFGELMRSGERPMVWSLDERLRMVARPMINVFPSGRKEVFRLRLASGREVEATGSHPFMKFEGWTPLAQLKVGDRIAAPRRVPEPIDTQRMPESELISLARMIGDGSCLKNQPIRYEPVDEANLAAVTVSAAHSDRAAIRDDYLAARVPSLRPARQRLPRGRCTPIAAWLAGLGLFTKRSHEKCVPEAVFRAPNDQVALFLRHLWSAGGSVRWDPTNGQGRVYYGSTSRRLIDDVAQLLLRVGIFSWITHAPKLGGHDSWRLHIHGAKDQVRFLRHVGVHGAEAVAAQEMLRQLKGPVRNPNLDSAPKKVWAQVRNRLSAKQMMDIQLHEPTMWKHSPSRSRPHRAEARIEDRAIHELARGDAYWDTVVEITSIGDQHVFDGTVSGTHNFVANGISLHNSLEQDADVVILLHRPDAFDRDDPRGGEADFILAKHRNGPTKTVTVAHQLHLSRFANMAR
In words: DnaB intein splicing inhibitors, dose response, biochemical, cell-free fluorescence (AID 449749). It counts as functional.

In a further test the target is T4, Protein RecA (Mycobacterium tuberculosis, UniProt P9WHJ3).
T4 sequence (P9WHJ3 whole entry): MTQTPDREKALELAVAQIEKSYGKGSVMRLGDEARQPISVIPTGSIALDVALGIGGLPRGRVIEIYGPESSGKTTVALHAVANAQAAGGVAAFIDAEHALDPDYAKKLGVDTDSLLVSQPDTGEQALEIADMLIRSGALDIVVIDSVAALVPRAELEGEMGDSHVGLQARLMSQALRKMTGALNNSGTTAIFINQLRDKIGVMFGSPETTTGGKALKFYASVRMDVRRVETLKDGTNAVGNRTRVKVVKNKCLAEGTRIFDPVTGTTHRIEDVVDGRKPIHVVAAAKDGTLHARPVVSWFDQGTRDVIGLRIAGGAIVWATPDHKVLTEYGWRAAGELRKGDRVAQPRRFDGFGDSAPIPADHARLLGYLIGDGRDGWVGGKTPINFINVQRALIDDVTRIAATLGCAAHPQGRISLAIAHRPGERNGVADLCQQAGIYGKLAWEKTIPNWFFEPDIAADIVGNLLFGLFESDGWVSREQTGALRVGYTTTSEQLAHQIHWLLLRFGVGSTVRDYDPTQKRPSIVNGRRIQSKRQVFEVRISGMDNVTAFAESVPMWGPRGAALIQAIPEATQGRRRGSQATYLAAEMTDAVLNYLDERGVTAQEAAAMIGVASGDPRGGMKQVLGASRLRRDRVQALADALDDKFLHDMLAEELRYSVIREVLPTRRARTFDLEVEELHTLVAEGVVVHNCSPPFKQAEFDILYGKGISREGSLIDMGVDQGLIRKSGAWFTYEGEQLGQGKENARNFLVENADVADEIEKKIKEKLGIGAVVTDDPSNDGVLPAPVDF
The test can be described thus: Fluorescence Cell-Free Homogeneous Dose Retest to Identify Inhibitors of RecA-Intein Splicing Activity. [Related pubchem assays (depositor defined):AID2097, AID2223, AID489010, AID492950]. The format is functional.

Test [12] addresses DNA (cytosine-5)-methyltransferase 1 (Homo sapiens, UniProt P26358). The test can be described thus: DNMT1 methyltransferase inhibitors, confirmation, biochemical, fluorescent molecular beacon (AID 602386). It counts as functional.
The target in test [13] is Induced myeloid leukemia cell differentiation protein Mcl-1 (Homo sapiens, UniProt Q07820). The format is functional.
For test [14], the target named is T5, Carboxy-terminal domain RNA polymerase II polypeptide A small phosphatase 1 (Homo sapiens, UniProt Q9GZU7).
T5 sequence (Q9GZU7 whole entry): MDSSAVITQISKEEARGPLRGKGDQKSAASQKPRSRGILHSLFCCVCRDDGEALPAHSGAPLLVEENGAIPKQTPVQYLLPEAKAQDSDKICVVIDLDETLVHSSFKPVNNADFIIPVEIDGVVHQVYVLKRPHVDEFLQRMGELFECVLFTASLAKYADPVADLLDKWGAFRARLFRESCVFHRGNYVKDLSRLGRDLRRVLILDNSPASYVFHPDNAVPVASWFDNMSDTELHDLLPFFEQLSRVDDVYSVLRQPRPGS
The test can be described thus: inhibitors of CTDSP1, concentration-response testing, biochemical assay, absorbance-based, actives from ultra-high-throughput screening (AID 540297). It counts as functional.

DNA (cytosine-5)-methyltransferase 1, sequence (P26358 whole entry): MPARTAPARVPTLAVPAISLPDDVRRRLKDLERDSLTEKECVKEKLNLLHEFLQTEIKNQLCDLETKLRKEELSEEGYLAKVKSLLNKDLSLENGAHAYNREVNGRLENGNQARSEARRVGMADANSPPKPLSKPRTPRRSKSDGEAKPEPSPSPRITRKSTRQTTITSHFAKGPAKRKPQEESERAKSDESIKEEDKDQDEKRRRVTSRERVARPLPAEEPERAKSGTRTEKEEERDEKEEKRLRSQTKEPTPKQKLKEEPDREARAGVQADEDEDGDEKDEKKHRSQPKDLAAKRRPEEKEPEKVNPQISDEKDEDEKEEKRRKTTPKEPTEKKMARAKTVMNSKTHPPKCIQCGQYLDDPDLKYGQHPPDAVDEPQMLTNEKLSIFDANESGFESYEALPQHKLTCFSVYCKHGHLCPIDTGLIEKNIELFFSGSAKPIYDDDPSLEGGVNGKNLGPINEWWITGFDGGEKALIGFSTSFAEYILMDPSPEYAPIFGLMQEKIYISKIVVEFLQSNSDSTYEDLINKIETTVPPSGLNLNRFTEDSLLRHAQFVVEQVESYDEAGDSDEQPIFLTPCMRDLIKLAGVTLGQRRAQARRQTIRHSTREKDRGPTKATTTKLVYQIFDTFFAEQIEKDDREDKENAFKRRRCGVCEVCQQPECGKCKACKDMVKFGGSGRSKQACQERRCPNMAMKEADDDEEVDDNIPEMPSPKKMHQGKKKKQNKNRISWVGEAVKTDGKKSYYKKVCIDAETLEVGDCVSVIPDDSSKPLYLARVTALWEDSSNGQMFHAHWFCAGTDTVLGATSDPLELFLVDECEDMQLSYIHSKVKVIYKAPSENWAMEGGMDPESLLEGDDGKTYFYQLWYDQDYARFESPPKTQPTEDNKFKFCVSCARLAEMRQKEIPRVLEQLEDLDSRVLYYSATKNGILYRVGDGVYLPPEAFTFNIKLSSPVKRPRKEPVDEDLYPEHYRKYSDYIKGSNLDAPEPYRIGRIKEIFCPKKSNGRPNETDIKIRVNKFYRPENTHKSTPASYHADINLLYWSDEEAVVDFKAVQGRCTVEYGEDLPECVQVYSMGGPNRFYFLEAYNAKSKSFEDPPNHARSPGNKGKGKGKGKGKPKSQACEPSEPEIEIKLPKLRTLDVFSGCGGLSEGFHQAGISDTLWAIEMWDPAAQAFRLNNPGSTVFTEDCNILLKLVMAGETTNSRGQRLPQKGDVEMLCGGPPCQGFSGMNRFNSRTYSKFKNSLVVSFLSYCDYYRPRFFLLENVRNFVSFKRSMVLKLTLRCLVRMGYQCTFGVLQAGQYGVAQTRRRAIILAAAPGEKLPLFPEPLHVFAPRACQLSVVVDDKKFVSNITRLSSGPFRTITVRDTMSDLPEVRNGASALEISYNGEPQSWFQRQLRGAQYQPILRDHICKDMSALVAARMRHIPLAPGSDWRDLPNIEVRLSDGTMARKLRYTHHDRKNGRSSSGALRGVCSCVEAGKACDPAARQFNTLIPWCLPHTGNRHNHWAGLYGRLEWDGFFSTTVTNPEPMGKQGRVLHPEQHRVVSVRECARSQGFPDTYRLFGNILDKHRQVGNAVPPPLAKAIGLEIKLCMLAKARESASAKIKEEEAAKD
Induced myeloid leukemia cell differentiation protein Mcl-1, sequence (Q07820 whole entry, the tested form may be a part): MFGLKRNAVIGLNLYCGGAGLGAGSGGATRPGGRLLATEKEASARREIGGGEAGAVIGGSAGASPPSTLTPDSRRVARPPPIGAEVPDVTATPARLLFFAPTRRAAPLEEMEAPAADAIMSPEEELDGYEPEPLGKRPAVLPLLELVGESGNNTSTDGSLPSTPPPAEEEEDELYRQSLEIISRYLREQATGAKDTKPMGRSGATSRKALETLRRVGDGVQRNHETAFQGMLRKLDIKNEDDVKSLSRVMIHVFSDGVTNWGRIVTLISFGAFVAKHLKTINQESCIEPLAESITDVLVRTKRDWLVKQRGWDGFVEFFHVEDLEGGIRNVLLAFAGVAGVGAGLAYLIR

Turning to `C[C@@H]1CN([C@@H](C)CO)C(=O)c2cccc(NC(=O)Nc3ccc4c(c3)OCO4)c2O[C@H]1CN(C)Cc1ccc(C(=O)Nc2ccccc2N)cc1`, in test [1], the AC50 is 1.04 µM (active).
As for `O=C(Nc1nnc(-c2ccccn2)o1)c1cccc(Cl)c1`, the CC50 is > 20 µM (active) in test [2] and > 40 µM (active) in test [5]. In addition, the EC50 with Streptococcus was 16.5 µM (active); in [4], > 50 µM (active); on Streptokinase A, > 150 µM (not active); in test [6], 2.42 µM (active). In addition, the AC50 in [3] is 89.6 µM (active). Further, the IC50 in “cells” is 3.73 µM (active).
For the compound `COc1ccc(-c2cc3nc(C4CCN(C(=O)OC(C)(C)C)CC4)c(C(=O)O)cn3n2)cc1`, the IC50 is 13.1 µM (active) in test [7] and 7.23 µM (active) in test [9]. The EC50 in test [8] is > 53 µM (inactive).
On to `COCCn1c(N)c(C(=O)NCc2cccs2)c2nc3ccccc3nc21`, for which, in [10], the half-maximal activity concentration (AC50) is 130 µM (active).
Turning to `O=C(CSc1ccc2nnc(-c3ccccn3)n2n1)Nc1ccccc1C(F)(F)F`, the AC50 in test [3] was 136 µM (active).
Consider `C[C@H]1CN([C@@H](C)CO)C(=O)c2cccc(NC(=O)Nc3cccc4ccccc34)c2O[C@H]1CN(C)S(=O)(=O)c1cccs1`, for which, in [1], the AC50 was 4.61 µM (active).
Still for that read-out and setting: the result for `C[C@H]1CN([C@@H](C)CO)C(=O)c2cccc(NC(=O)CCCCCC(=O)Nc3ccccc3N)c2O[C@@H]1CN(C)CC1CC1` reads 2.88 µM (active).
Regarding `COc1ccc(N2C(=O)CSC23C(=O)N2c4c(cccc43)C(C)=CC2(C)C)cc1` (stereo not given), the IC50 is 11 µM (active) in test [7] and 4.46 µM (active) in [9]. In addition, the AC50 in test [11] is 10.3 µM (active). For the same compound, the EC50 was > 53 µM (inactive) in test [8] and 35.6 µM (active) at Protein RecA.
`O=C(COC(=O)c1ccc(NS(=O)(=O)c2cccs2)cc1)NCc1ccco1`: the IC50 in [12] is 9.6 µM (active); in test [13], 3.09 µM (active).
For the compound `O=C1CC(=O)NC(SCC(=O)Nc2ccccc2[N+](=O)[O-])=N1`, the IC50 was 8.51 µM (active) in test [12] and 4.04 µM (active) in test [14].
